Laboratory results published in the NIST ThermoML archive (doi:10.1021/je800300x).
± gives the expanded uncertainty stated by the source.

Experiments:
[1] = Crystal; DTA
[2] = Molar enthalpy of transition or fusion; conditions: Crystal; DSC

Structure (SMILES): c1ccc2c(c1)-c1ccccc1-2 [biphenylene]
- Normal melting temperature [1]: 112.2 ± 1.1 °C
- Molar enthalpy of transition or fusion [2]: 5.4 ± 0.359 kcal/mol
